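Dose response: 5 concentrations. Exposure: 48 h. Format: 96-well plates. Endpoint: linear interpolation; highest concentration if not reached. At the GI50, growth is halved.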 Active and inactive are the calls of the source. Rule as the data show it: active = GI50 up to about 1.1 µM and inactive = higher.
Tests used:
Assay in all cases: NCI tumour cell line growth inhibition, 48 h
SNB-78 = tested on: SNB-78
HOP-92 = tested on: HOP-92
HCT-15 = tested on: HCT-15
OVCAR-4 = tested on: OVCAR-4
SF-295 = tested on: SF-295
HOP-62 = tested on: HOP-62
HL-60 = tested on: HL-60
CAKI-1 = tested on: CAKI-1
SF-268 = tested on: SF-268
UACC-62 = tested on: UACC-62
UO-31 = tested on: UO-31
K562 = tested on: K562
A498 = tested on: A498
EKVX = tested on: EKVX
NCI-H23 = tested on: NCI-H23
UACC-257 = tested on: UACC-257
786-0 = tested on: 786-0
PC-3 = tested on: PC-3
Hs-578T = tested on: Hs-578T
BT-549 = tested on: BT-549

| Structure (SMILES) | GI50 (SNB-78) | GI50 (HOP-92) | GI50 (HCT-15) [µM] | GI50 (OVCAR-4) | GI50 (SF-295) | GI50 (HOP-62) | GI50 (HL-60) | GI50 (CAKI-1) | GI50 (SF-268) | GI50 (UACC-62) | GI50 (UO-31) | GI50 (K562) | GI50 (A498) | GI50 (EKVX) | GI50 (NCI-H23) | GI50 (UACC-257) | GI50 (786-0) | GI50 (PC-3) | GI50 (Hs-578T) | GI50 (BT-549) |
| --- | --- | --- | --- | --- | --- | --- | --- | --- | --- | --- | --- | --- | --- | --- | --- | --- | --- | --- | --- | --- |
| C=C1C(=O)OCC2C(C(=O)O)=CC3C(C)C(C)=CC123 (centres undefined) | 14.8 µM (inactive) | 10.6 µM (inactive) | 11 | 8.32 µM (inactive) | 15 µM (inactive) | 12.2 µM (inactive) | 9.33 µM (inactive) | 19.6 µM (inactive) | 9.46 µM (inactive) | 5.41 µM (inactive) | 14 µM (inactive) | 10.2 µM (inactive) | 7.8 µM (inactive) | 21.7 µM (inactive) | 8.36 µM (inactive) | 16.7 µM (inactive) | – | – | – | – |
| CC(=O)c1ccc2c(c1)c1c(C)c3c[n+](C)ccc3c(C)c1n2C | 4.53 µM (inactive) | 11.8 µM (inactive) | 17.6 | 4.85 µM (inactive) | 0.885 µM (active) | 7.36 µM (inactive) | 8.75 µM (inactive) | 6.92 µM (inactive) | 0.469 µM (active) | 1.87 µM (inactive) | 3.36 µM (inactive) | 14.8 µM (inactive) | 6.41 µM (inactive) | 33.3 µM (inactive) | – | 6.35 µM (inactive) | – | – | – | – |
| COc1ccc(C2=CC3CCC2C3)cc1 (centres undefined) | > 100 µM (inactive) | 59.8 µM (inactive) | > 100 | > 100 µM (inactive) | > 100 µM (inactive) | > 100 µM (inactive) | 50 µM (inactive) | > 100 µM (inactive) | > 100 µM (inactive) | > 100 µM (inactive) | > 100 µM (inactive) | > 100 µM (inactive) | 77.3 µM (inactive) | > 100 µM (inactive) | > 100 µM (inactive) | > 100 µM (inactive) | > 100 µM (inactive) | – | – | – |
| COc1cc([C@@H]2c3cc4c(cc3[C@@H](NC(=O)c3cccc(N)c3)C3COC(=O)[C@@H]32)OCO4)cc(OC)c1O (some centres undefined) | 3.92 µM (inactive) | 0.946 µM (active) | 1.99 | 17.4 µM (inactive) | 0.262 µM (active) | 0.0231 µM (active) | 0.233 µM (active) | 0.333 µM (active) | 0.935 µM (active) | 0.619 µM (active) | 9.06 µM (inactive) | 2.11 µM (inactive) | 0.76 µM (active) | 2.61 µM (inactive) | 0.261 µM (active) | 10.7 µM (inactive) | 0.421 µM (active) | – | – | – |
| CC1NOC(=O)C1/N=N/c1ccccc1Cl (centres undefined) | 52.5 µM (inactive) | 21.6 µM (inactive) | – | 39.9 µM (inactive) | 74.1 µM (inactive) | 92.3 µM (inactive) | 20 µM (inactive) | 25.5 µM (inactive) | 35.1 µM (inactive) | 31.1 µM (inactive) | 13.9 µM (inactive) | 40.7 µM (inactive) | 17 µM (inactive) | 88.9 µM (inactive) | 29.9 µM (inactive) | 17.8 µM (inactive) | 26.5 µM (inactive) | – | – | – |
| C[N+](C)(C)CC1CCc2ccccc2C1=O (centres undefined) | 23.4 µM (inactive) | 7.35 µM (inactive) | 3.04 | 4.75 µM (inactive) | 34.1 µM (inactive) | 26.4 µM (inactive) | 2.52 µM (inactive) | 4.97 µM (inactive) | 17.3 µM (inactive) | 5.42 µM (inactive) | 18.3 µM (inactive) | 1.79 µM (inactive) | 26.2 µM (inactive) | 7.76 µM (inactive) | 13.3 µM (inactive) | 12.2 µM (inactive) | 6.46 µM (inactive) | 15.5 µM (inactive) | 13.7 µM (inactive) | 15.5 µM (inactive) |
| COc1cccc(-c2nccc3c(OCc4ccccc4)c(OC)c(OC)cc23)c1 | 63.1 µM (inactive) | > 100 µM (inactive) | 4.72 | – | > 100 µM (inactive) | > 100 µM (inactive) | 4.25 µM (inactive) | – | > 100 µM (inactive) | > 100 µM (inactive) | 7.29 µM (inactive) | 4.91 µM (inactive) | > 100 µM (inactive) | > 100 µM (inactive) | 4.09 µM (inactive) | > 100 µM (inactive) | > 10 µM (inactive) | – | – | – |
| Oc1cccc2nc3cc(CN4CCOCC4)c(CN4CCOCC4)cc3nc12 | > 100 µM (inactive) | 46.7 µM (inactive) | 37.4 | 67.3 µM (inactive) | 45.8 µM (inactive) | 52 µM (inactive) | 33.3 µM (inactive) | > 100 µM (inactive) | 48.2 µM (inactive) | 40.2 µM (inactive) | 29.6 µM (inactive) | 34.3 µM (inactive) | > 100 µM (inactive) | > 100 µM (inactive) | > 100 µM (inactive) | > 100 µM (inactive) | 59.7 µM (inactive) | – | – | – |
| COc1cc2ccc3c4c(OC)cc(OC)c(OC)c4c([O-])[n+](C)c3c2cc1OC | 10.2 µM (inactive) | 12 µM (inactive) | – | 18.1 µM (inactive) | 4.47 µM (inactive) | 15.1 µM (inactive) | 1.33 µM (inactive) | > 20.6 µM (inactive) | 3.46 µM (inactive) | 25.1 µM (inactive) | > 34 µM (inactive) | 0.568 µM (active) | 3.76 µM (inactive) | 22.2 µM (inactive) | 10.1 µM (inactive) | 17.9 µM (inactive) | > 100 µM (inactive) | – | – | – |
| CCCn1cc2c(SC)nc(SC)nc2n1 | > 100 µM (inactive) | > 100 µM (inactive) | > 100 | > 100 µM (inactive) | > 100 µM (inactive) | – | > 100 µM (inactive) | > 100 µM (inactive) | > 100 µM (inactive) | – | > 100 µM (inactive) | > 100 µM (inactive) | > 100 µM (inactive) | > 100 µM (inactive) | > 100 µM (inactive) | > 100 µM (inactive) | – | – | – | – |
| O=C1C(=O)N(c2cc(Cl)ccc2Cl)C(=O)C(=O)C1c1nc2ccccc2o1 | > 100 µM (inactive) | > 100 µM (inactive) | > 100 | > 100 µM (inactive) | > 100 µM (inactive) | > 100 µM (inactive) | 39.1 µM (inactive) | > 100 µM (inactive) | > 100 µM (inactive) | > 100 µM (inactive) | > 70.8 µM (inactive) | 61.1 µM (inactive) | > 100 µM (inactive) | > 100 µM (inactive) | > 100 µM (inactive) | > 100 µM (inactive) | > 100 µM (inactive) | – | – | – |
| CN(C)/C(=N\C#N)N(Cc1ccccc1)Cc1ccccc1 | > 100 µM (inactive) | 36.3 µM (inactive) | 16.6 | > 100 µM (inactive) | 68.4 µM (inactive) | > 100 µM (inactive) | 44.3 µM (inactive) | > 100 µM (inactive) | 98.2 µM (inactive) | 62.4 µM (inactive) | 80.5 µM (inactive) | 17.9 µM (inactive) | 49 µM (inactive) | > 100 µM (inactive) | > 100 µM (inactive) | > 100 µM (inactive) | > 100 µM (inactive) | – | – | – |
| C#C[C@H]1CCCCCC1O (some centres undefined) | > 100 µM (inactive) | > 100 µM (inactive) | > 100 | > 100 µM (inactive) | > 100 µM (inactive) | > 100 µM (inactive) | 36.1 µM (inactive) | > 100 µM (inactive) | > 100 µM (inactive) | > 100 µM (inactive) | > 100 µM (inactive) | > 100 µM (inactive) | > 100 µM (inactive) | > 100 µM (inactive) | > 100 µM (inactive) | > 100 µM (inactive) | > 100 µM (inactive) | – | – | – |
| COCC1N=C(c2ccc(OC)c(OCc3ccccc3)c2OC)O[C@H]1c1ccccc1 (some centres undefined) | 29.1 µM (inactive) | 13.1 µM (inactive) | 17.5 | 20.5 µM (inactive) | 25.6 µM (inactive) | 37.2 µM (inactive) | 15.2 µM (inactive) | – | 25.8 µM (inactive) | 15.8 µM (inactive) | 4.89 µM (inactive) | 12.3 µM (inactive) | 6.19 µM (inactive) | 34 µM (inactive) | 17.7 µM (inactive) | – | 29.9 µM (inactive) | – | – | – |
